The values below come from ChEMBL document CHEMBL1132079, “Combined NK1 and NK2 tachykinin receptor antagonists: synthesis and structure-activity relationships of novel oxazolidine analogues” (Bioorg Med Chem Lett, 1999).

The term inhibition denotes the share of the control response that was lost under treatment. As a reminder, the IC50 is the concentration that inhibits the measured activity by half. Low values mean greater potency, high ones weaker potency.

Assay [1] deals with Substance-P receptor (Cavia porcellus) (UniProt P30547). Put plainly: Inhibitory activity against Neurokinin 1 (NK1) receptor from guinea pig lung at a concentration of 1 ug/mL.
Chain of Substance-P receptor (Cavia porcellus) (P30547 whole entry): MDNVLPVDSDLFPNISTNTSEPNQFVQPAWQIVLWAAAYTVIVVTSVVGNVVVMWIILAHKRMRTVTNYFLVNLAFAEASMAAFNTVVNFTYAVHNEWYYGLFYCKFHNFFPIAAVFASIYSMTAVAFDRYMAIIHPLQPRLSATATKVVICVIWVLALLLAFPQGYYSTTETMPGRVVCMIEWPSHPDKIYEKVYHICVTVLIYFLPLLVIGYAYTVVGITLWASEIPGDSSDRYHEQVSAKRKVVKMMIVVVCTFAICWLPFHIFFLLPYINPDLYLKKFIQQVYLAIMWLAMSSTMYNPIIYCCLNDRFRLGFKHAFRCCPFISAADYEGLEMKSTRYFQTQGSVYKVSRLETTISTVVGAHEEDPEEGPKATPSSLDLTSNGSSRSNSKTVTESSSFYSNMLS
For assay [2], the target named is T1, Substance-K receptor (Cavia porcellus) (UniProt Q64077).
T1 sequence (whole entry): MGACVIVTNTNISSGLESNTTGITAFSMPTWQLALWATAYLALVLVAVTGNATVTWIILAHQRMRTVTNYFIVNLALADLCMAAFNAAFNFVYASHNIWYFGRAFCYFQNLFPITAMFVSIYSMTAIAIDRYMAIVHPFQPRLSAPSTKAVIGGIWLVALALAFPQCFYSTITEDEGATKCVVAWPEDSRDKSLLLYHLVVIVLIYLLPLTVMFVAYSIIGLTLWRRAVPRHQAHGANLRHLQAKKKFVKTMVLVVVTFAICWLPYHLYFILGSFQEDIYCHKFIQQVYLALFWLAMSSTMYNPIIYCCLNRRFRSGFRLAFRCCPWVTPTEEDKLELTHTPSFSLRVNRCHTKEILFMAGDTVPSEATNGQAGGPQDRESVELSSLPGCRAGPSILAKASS
Put plainly: Antagonist activity against Neurokinin 2 (NK2) receptor from guinea pig ileum at a concentration of 1 ug/mL. The assay is classed as functional, tissue-based.

The next assay has as its target Substance-P receptor (Cavia porcellus, UniProt P30547). The assay is described as follows: Inhibitory activity against Neurokinin 1 (NK1) receptor from guinea pig lung.
The target in another assay is T2, Substance-K receptor (Cavia porcellus, UniProt Q64077).
T2 sequence (Q64077 whole entry): T1 sequence (whole entry)
The assay is described as follows: Inhibitory activity against Neurokinin 2 (NK2) receptor from guinea pig ileum. The assay is classed as tissue-based.

Active and inactive are the calls of the source. The rule behind the calls is not given here.

Chain of Substance-P receptor (P30547 whole entry): as the sequence (P30547 whole entry) above

`NC(=O)C1(c2ccccc2)CCN(CC[C@@]2(c3ccc(Cl)c(Cl)c3)CN(C(=O)c3cccnc3)CO2)CC1`: the inhibition in assay [1] amounted to 38%; in assay [2], 48%. The like results for `NC(=O)C1(c2ccccc2)CCN(CC[C@@]2(c3ccc(Cl)c(Cl)c3)CN(C(=O)c3cc4ccccc4o3)CO2)CC1` were, in that order, “inactive” and 59%.

Consider `COc1cc(C(=O)N2CO[C@](CCCN3CCC(C(N)=O)(c4ccccc4)CC3)(c3ccc(Cl)c(Cl)c3)C2)cc(OC)c1OC`, for which the figures for the IC50 at Substance-P receptor and at Substance-K receptor were 0.035 µM and more than 1.52 µM, respectively.

With `COc1cc(C(=O)N2CO[C@](CCN3CCC(O)(c4ccccc4)CC3)(c3ccc(Cl)c(Cl)c3)C2)cc(OC)c1OC`, the inhibition in assay [1] stood at 100%; in assay [2] it was 58%. `COc1cc(C(=O)N2CO[C@](CCN3CCC(O)(c4ccncc4)CC3)(c3ccc(Cl)c(Cl)c3)C2)cc(OC)c1OC`: the values for the IC50 against Substance-P receptor and against Substance-K receptor were 0.00308 µM and 0.144 µM, respectively. With `COC(=O)c1ccc(C(=O)N2CO[C@](CCN3CCC(C(N)=O)(c4ccccc4)CC3)(c3ccc(Cl)c(Cl)c3)C2)cc1`, the figures for the inhibition in assay [1] and in assay [2] were 36% and 85%, respectively.

Regarding `COc1cc(C(=O)N2CO[C@](CCN3CCC4(CC3)CN(c3ccccc3)C(=O)O4)(c3ccc(Cl)c(Cl)c3)C2)cc(OC)c1OC`, the inhibition in assay [1] amounted to 86%; in assay [2], 12%. Regarding `COc1cc(C(=O)N2CO[C@](CCN3CCC4(CC3)NC(=O)Cc3ccccc34)(c3ccc(Cl)c(Cl)c3)C2)cc(OC)c1OC`, the IC50 is 0.0183 µM against Substance-P receptor and 0.00458 µM against Substance-K receptor. The compound `COc1cc(C(=O)N2CO[C@](CCN3CCC(C(=O)NCc4ccccc4)CC3)(c3ccc(Cl)c(Cl)c3)C2)cc(OC)c1OC` yielded an inhibition in assay [2] of 64%. On Substance-P receptor, this compound gave an IC50 of 0.0929 µM.

`CC(=O)Nc1ccc(C(=O)N2CO[C@](CCN3CCC(C(N)=O)(c4ccccc4)CC3)(c3ccc(Cl)c(Cl)c3)C2)cc1`: the inhibition is 9% in assay [1] and 85% in assay [2]. The like results for `NC(=O)C1(c2ccccc2)CCN(CC[C@@]2(c3ccc(Cl)c(Cl)c3)CN(C(=O)c3cnccn3)CO2)CC1` were, in that order, 23% and 47%. For `COc1cc(C(=O)N2CO[C@](CCN3CCC(C(C)=O)(c4ccccc4)CC3)(c3ccc(Cl)c(Cl)c3)C2)cc(OC)c1OC` the same measures were 83% and 57%. On to `COc1cc(C(=O)N2CO[C@](CCN3CCC(C(=O)Nc4ccccc4)CC3)(c3ccc(Cl)c(Cl)c3)C2)cc(OC)c1OC`, for which the inhibition in assay [1] was 44%; in assay [2], 72%. The like results for `COc1cc(C(=O)N2CO[C@](CCN3CCC(C(=O)c4ccc(Cl)cc4)CC3)(c3ccc(Cl)c(Cl)c3)C2)cc(OC)c1OC` were, in that order, 97% and 54%. For `NC(=O)C1(c2ccccc2)CCN(CC[C@@]2(c3ccc(Cl)c(Cl)c3)CN(C(=O)c3ccccn3)CO2)CC1` the same measures were 39% and 73%.

Consider `COc1cc(OC)cc(C(=O)N2CO[C@](CCN3CCC(C(N)=O)(c4ccccc4)CC3)(c3ccc(Cl)c(Cl)c3)C2)c1`, for which the inhibition in assay [1] worked out at 93%; in assay [2] it was 97%. The like results for `NC(=O)C1(c2ccccc2)CCN(CC[C@@]2(c3ccc(Cl)c(Cl)c3)CN(C(=O)c3ccncc3)CO2)CC1` were, in that order, 65% and 57%. For `COc1ccc(C(=O)N2CO[C@](CCN3CCC(C(N)=O)(c4ccccc4)CC3)(c3ccc(Cl)c(Cl)c3)C2)c(OC)c1` the same measures were 78% and 85%. The like results for `COc1cc(C(=O)N2CO[C@](CCN3CCC(C(N)=O)(c4ccccn4)CC3)(c3ccc(Cl)c(Cl)c3)C2)cc(OC)c1OC` were, in that order, 95% and 83%.

With `COc1cc(C(=O)N2CO[C@](CCN3CCC4(CC3)CN(S(C)(=O)=O)c3ccccc34)(c3ccc(Cl)c(Cl)c3)C2)cc(OC)c1OC`, the inhibition stood at 98% in assay [1] and 91% in assay [2]. For `NC(=O)C1(c2ccccc2)CCN(CC[C@@]2(c3ccc(Cl)c(Cl)c3)CN(C(=O)c3ccccc3)CO2)CC1` the same measures were 75% and 87%. For `CC(C)Oc1cccc(CC(=O)N2CO[C@](CCN3CCC(C(N)=O)(c4ccccc4)CC3)(c3ccc(Cl)c(Cl)c3)C2)c1` the same measures were 59% and 18%. The like results for `Cc1cc(C)cc(C(=O)N2CO[C@](CCN3CCC(C(N)=O)(c4ccccc4)CC3)(c3ccc(Cl)c(Cl)c3)C2)c1` were, in that order, 100% and 90%.

With `NC(=O)C1(c2ccccc2)CCN(CC[C@@]2(c3ccc(Cl)c(Cl)c3)CN(C(=O)c3cccs3)CO2)CC1`, the inhibition in assay [1] is 33%; in assay [2] it was 83%. For `COc1cccc(OC)c1C(=O)N1CO[C@](CCN2CCC(C(N)=O)(c3ccccc3)CC2)(c2ccc(Cl)c(Cl)c2)C1` the same measures were 74% and 83%.

For the compound `COc1cc(C(=O)N2CO[C@](CCN3CCC(O)(c4ccccn4)CC3)(c3ccc(Cl)c(Cl)c3)C2)cc(OC)c1OC`, the inhibition came to 100% in assay [1] and 76% in assay [2]. For `COc1cc(C(=O)N2CO[C@](CCN3CCN(c4ccccn4)CC3)(c3ccc(Cl)c(Cl)c3)C2)cc(OC)c1OC` the same measures were 100% and 42%. The like results for `NC(=O)C1(c2ccccc2)CCN(CC[C@@]2(c3ccc(Cl)c(Cl)c3)CN(C(=O)c3ccc(Cl)cc3)CO2)CC1` were, in that order, 50% and 88%. In the case of `COc1ccc(S(=O)(=O)N2CO[C@](CCN3CCC(C(N)=O)(c4ccccc4)CC3)(c3ccc(Cl)c(Cl)c3)C2)cc1OC`, the inhibition is 71% in assay [1] and 10% in assay [2].

Turning to `COc1cc(C(=O)N2CO[C@](CCN3CCC4(CC3)CN(Cc3ccccc3)C(=O)O4)(c3ccc(Cl)c(Cl)c3)C2)cc(OC)c1OC`, the results for the inhibition in assay [1] and in assay [2] were 86% and 44%, respectively. As to `COc1cc(C(=O)N2CO[C@](CCN3CCC(NC(=O)c4ccccc4)CC3)(c3ccc(Cl)c(Cl)c3)C2)cc(OC)c1OC`, the figures for the inhibition in assay [1] and in assay [2] were 89% and 44%, respectively. The like results for `NC(=O)C1(c2ccccc2)CCN(CC[C@@]2(c3ccc(Cl)c(Cl)c3)CN(C(=O)c3ccc4ccccc4n3)CO2)CC1` were, in that order, “inactive” and 71%. For `COc1cccc(C(=O)N2CO[C@](CCN3CCC(C(N)=O)(c4ccccc4)CC3)(c3ccc(Cl)c(Cl)c3)C2)c1` the same measures were 100% and 82%. The like results for `COc1cc(C(=O)N2CO[C@](CCN3CCC(n4c(O)nc5ccccc54)CC3)(c3ccc(Cl)c(Cl)c3)C2)cc(OC)c1OC` were, in that order, 100% and 85%. On to `NC(=O)C1(c2ccccc2)CCN(CC[C@@]2(c3ccc(Cl)c(Cl)c3)CN(C(=O)c3cc4ccccc4[nH]3)CO2)CC1`, for which the inhibition in assay [1] turned out to be 96%; in assay [2], 26%. For `COc1cc(C(=O)N2CO[C@](CCN3CCC(O)(c4cccnc4)CC3)(c3ccc(Cl)c(Cl)c3)C2)cc(OC)c1OC` the same measures were 100% and 100%. For `COc1cc(C(=O)N2CO[C@](CCN3CCC4(CC3)SCc3ccccc34)(c3ccc(Cl)c(Cl)c3)C2)cc(OC)c1OC` the same measures were 100% and 89%. Consider `COc1cc(C(=O)N2CO[C@](CCN3CCC4(CC3)OCc3ccccc34)(c3ccc(Cl)c(Cl)c3)C2)cc(OC)c1OC`, for which the inhibition in assay [1] stood at 98%; in assay [2], 91%. For `COc1cc(C(=O)N2CO[C@](CCN3CCN(c4ncccn4)CC3)(c3ccc(Cl)c(Cl)c3)C2)cc(OC)c1OC` the same measures were 100% and 48%. For `Cc1ccc(C(=O)N2CO[C@](CCN3CCC(C(N)=O)(c4ccccc4)CC3)(c3ccc(Cl)c(Cl)c3)C2)cc1` the same measures were 56% and 88%.

Take `COc1cc(CC(=O)N2CO[C@](CCN3CCC(C(N)=O)(c4ccccc4)CC3)(c3ccc(Cl)c(Cl)c3)C2)cc(OC)c1OC`: in assay [1], the inhibition worked out at 87%. The inhibition entry in assay [2] was “inactive”.

Consider `N#Cc1ccc(C(=O)N2CO[C@](CCN3CCC(C(N)=O)(c4ccccc4)CC3)(c3ccc(Cl)c(Cl)c3)C2)cc1`, for which the inhibition is 29% in assay [1] and 79% in assay [2]. `COc1cc(C(=O)N2CO[C@](CCN3CCC4(CC3)C(=O)NCN4c3ccccc3)(c3ccc(Cl)c(Cl)c3)C2)cc(OC)c1OC`: on Substance-P receptor, half-maximal inhibition (IC50) was put at 0.00747 µM. `COc1ccc(C(=O)N2CO[C@](CCN3CCC(C(N)=O)(c4ccccc4)CC3)(c3ccc(Cl)c(Cl)c3)C2)cc1OC`: the figures for the inhibition in assay [1] and in assay [2] were 93% and 88%, respectively. The like results for `COc1ccccc1C(=O)N1CO[C@](CCN2CCC(C(N)=O)(c3ccccc3)CC2)(c2ccc(Cl)c(Cl)c2)C1` were, in that order, 100% and 87%. As to `NC(=O)C1(c2ccccc2)CCN(CC[C@@]2(c3ccc(Cl)c(Cl)c3)CN(C(=O)c3cnc4ccccc4n3)CO2)CC1`, the inhibition in assay [1] came to 38%; in assay [2], 71%.

As for `COc1cc(C(=O)N2CO[C@](CCN3CCC(NC(C)=O)(c4ccccc4)CC3)(c3ccc(Cl)c(Cl)c3)C2)cc(OC)c1OC`, the inhibition amounted to 100% in assay [1] and 62% in assay [2].
